In patent publication US20100062073A1, “PHARMACEUTICAL COMPOSITIONS COMPRISING NANOPARTICLES COMPRISING ENTERIC POLYMERS CASEIN” (priority 2006, published 2010) one finds solubility data, which are given here for one compound.

A short description of this data set: Solubility of drug in PBS. The following applies: phosphate buffered saline (PBS), pH 6.5, aqueous buffer. The class given is physicochemical. Here is the method:
At a pH of greater than about 5, the enteric polymer is aqueous soluble. By “aqueous soluble” is meant that when the polymer is administered alone at a solids concentration of 0.2 mg/mL to a phosphate buffered saline (PBS) solution consisting of an aqueous solution of 20 mM sodium phosphate (Na2HPO4), 47 mM potassium phosphate (KH2PO4), 87 mM NaCl, and 0.2 mM KCl, adjusted to pH 6.5 with NaOH, the polymer has a solubility of greater than 0.1 mg/mL.
The Tm of Drug 1 is 10° C., and the Tg was determined by DSC analysis to be −16° C.

The solubility is the concentration that dissolves in the medium under given conditions. High values mean much dissolved substance, low ones little dissolved substance.

A value given as a limit tells only on which side of the number the result lay.

As for `CCc1cc(Oc2cccc(N(Cc3cccc(OC(F)(F)C(F)F)c3)C[C@@H](O)C(F)(F)F)c2)ccc1Cl` [Drug 1, (2R)-3-[[3-(4-chloro-3-ethylphenoxy)phenyl][[3-(1,1,2,2-tetrafluoroethoxy)phenyl]methyl]amino]-1,1,1-trifluoro-2-propanol], the solubility is < 0.1 µg/mL.
